Results taken from ChEMBL document CHEMBL4138182, “Aminomethylation of heliomycin: Preparation and anticancer characterization of the first series of semi-synthetic derivatives” (Eur J Med Chem, 2018).
The source made the active and inactive calls. The calls are words filed in the database; no cut-off is given here.

Key:
[1] = system: HCT-116; assay: Antiproliferative activity against human HCT116 cells after 72 hrs by MTT assay; assay type: functional, cell-based; details: HCT-116, 72 h
[2] = system: HCT-116; assay: Antiproliferative activity against p53 deficient human HCT116 cells after 72 hrs by MTT assay; assay type: functional, cell-based; details: HCT-116, 72 h
[3] = system: K562; assay: Antiproliferative activity against human K562 cells after 72 hrs by MTT assay; assay type: functional, cell-based; details: K562, 72 h
[4] = Antiproliferative activity against human K562/4 cells after 72 hrs by MTT assay; assay type: functional, cell-based; details: K562/4, 72 h
[5] = system: L1210; assay: Antiproliferative activity against mouse L1210 cells after 72 hrs by MTT assay; assay type: functional, cell-based; details: L1210, 72 h
[6] = system: CCRF-CEM; assay: Antiproliferative activity against human CEM cells after 72 hrs by MTT assay; assay type: functional, cell-based
[7] = system: HeLa; assay: Antiproliferative activity against human HeLa cells after 72 hrs by MTT assay; assay type: functional, cell-based
[8] = system: HMEC-1; assay: Antiproliferative activity against HMEC1 cells after 72 hrs by MTT assay; assay type: cell-based; details: Homo sapiens, HMEC-1, 72 h
[9] = system: Calf thymus DNA; assay: Binding affinity to calf thymus double stranded DNA at 10 uM by fluorescence spectrophotometer; assay type: nucleic-acid assay; details: Bos taurus
[10] = system: T-24; assay: Growth inhibition of human T24 cells after 72 hrs by cell impedance method; assay type: functional, cell-based; details: T-24, 72 h
[11] = biological target: T1, DNA topoisomerase 1 (Homo sapiens) (UniProt P11387); assay: Inhibition of human DNA topoisomerase 1 assessed as decrease in relaxation of pBR322 at 20 uM after 30 to 40 mins by agarose gel electrophoresis
T1 sequence (whole entry): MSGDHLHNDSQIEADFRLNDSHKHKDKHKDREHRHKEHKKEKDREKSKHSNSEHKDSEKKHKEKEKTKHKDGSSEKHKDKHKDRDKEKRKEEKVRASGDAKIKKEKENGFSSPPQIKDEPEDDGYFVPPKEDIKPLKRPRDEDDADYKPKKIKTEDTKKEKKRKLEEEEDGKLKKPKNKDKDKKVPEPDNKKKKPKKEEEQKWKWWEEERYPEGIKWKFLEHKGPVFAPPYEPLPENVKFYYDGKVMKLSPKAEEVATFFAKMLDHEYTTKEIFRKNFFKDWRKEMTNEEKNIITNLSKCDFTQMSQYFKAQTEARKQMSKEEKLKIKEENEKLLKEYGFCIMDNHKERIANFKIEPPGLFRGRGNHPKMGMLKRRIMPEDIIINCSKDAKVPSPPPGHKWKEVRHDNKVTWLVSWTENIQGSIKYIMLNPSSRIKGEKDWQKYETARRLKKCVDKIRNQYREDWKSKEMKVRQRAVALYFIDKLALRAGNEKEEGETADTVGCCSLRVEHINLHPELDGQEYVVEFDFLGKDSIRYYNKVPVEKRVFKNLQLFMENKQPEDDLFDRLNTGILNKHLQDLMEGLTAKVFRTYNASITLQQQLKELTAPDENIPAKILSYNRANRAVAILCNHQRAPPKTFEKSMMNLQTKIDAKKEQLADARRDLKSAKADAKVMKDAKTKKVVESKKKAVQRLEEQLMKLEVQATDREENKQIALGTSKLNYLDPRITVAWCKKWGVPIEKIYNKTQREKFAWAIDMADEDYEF

[12] = system: T-24; assay: Induction of apoptosis n human T24 cells at 1 uM after 24 hrs by annexin V-FITC/propidium iodide staining-based flow cytometric method; assay type: functional, cell-based
[13] = system: T-24; assay: Induction of apoptosis n human T24 cells assessed as upregulation of Bak levels at 0.5 to 1 uM after 18 hrs by Western blot method; assay type: functional, cell-based
[14] = system: T-24; assay: Induction of apoptosis n human T24 cells assessed as downregulation of Bcl-2 levels at 0.5 to 1 uM after 18 hrs by Western blot method; assay type: functional, cell-based
[15] = system: T-24; assay: Induction of apoptosis n human T24 cells assessed as PARP cleavage at 0.5 to 1 uM after 18 hrs by Western blot method; assay type: functional, cell-based
[16] = system: T-24; assay: Upregulation of total p53 levels in human T24 cells at 0.5 to 1 uM after 18 hrs by Western blot method; assay type: cell-based; details: t-24, 18 h
[17] = system: T-24; assay: Induction of reactive oxygen species generation in human T24 cells at 1 uM after 30 mins by H2DCFDA dye-based flow cytometric method; assay type: functional, cell-based
[18] = system: Calf thymus DNA; assay: Binding affinity to calf thymus DNA; assay type: nucleic-acid assay; details: Bos taurus
[19] = Resistance index, ratio of IC50 for human K562/4 cells to IC50 for human K562 cells; assay type: functional

IC50 [1] | IC50 [2] | IC50 [3] | IC50 [5] | IC50 [6] | IC50 [7] | Activity [9] | inhibition [11] | Kb [18] | Compound | IC50 [4] | IC50 [8] | IC50 [10] | Activity [12] | Activity [13] | Activity [14] | Activity [15] | Activity [16] | Activity [17] | Ratio IC50 [19]
300 nM | 100 nM | 300 nM | 700 nM | 500 nM | 100 nM | inactive | inactive | 1.1 ×10⁴ /M | Cc1cc(O)c2c3c4c(cc(O)c13)C(C)(C)C(=O)c1c(O)cc(O)c(c1-4)C2=O [HELIOMYCIN] | 400 nM | 500 nM | 26000 nM | inactive | inactive | inactive | inactive | Toxic | inactive | 
500 nM | 1000 nM | 1300 nM | 3800 nM | 3300 nM | 3600 nM |  |  |  | Cc1cc(O)c2c3c4c(cc(O)c13)C(C)(C)C(=O)c1c(O)c(CNCCO)c(O)c(c1-4)C2=O | 19400 nM |  |  |  |  |  |  |  |  | 20
